We go through eight molecules from US7217557B1, “Three-dimensional structure of polyketide synthases” (The Salk Institute for Biological Studies, priority 1999, dated 2007).

“Also recorded” adds a separate entry of the source.

Data set [1] is described as follows: TLC-based radiometric assay of product formation by 2-PS, CHS and CHS mutants. It counts as biochemical. Particulars: for polyketide product formed: TLC, triple mutant and 2-PS confirmed by LC/MS; for starter molecule accepted: p-coumaroyl-CoA or acetyl-CoA as starter. The source says: Comparison of the initiation/elongation cavities of 2-PS and CHS reveal four amino acid differences. In 2-PS, Leu202, Met259, Leu261, and Ile343 replace Thr197, Ile254, Gly256, and Ser338, respectively, of CHS. These four substitutions reduce cavity volume from 923 Å^3 in CHS to 274 Å^3 in 2-PS. A model of methylpyrone in the 2-PS cavity, based on the position of acetoacetyl-CoA, emphasizes the volume change compared to the CHS-naringenin complex (Accession No. 1CGK). Leu202 and Ile343 occlude the portion of the 2-PS cavity corresponding to the coumaroyl-binding site of CHS. Replacement of Gly256 in CHS by Leu261 in 2-PS severely reduces the size of the active site cavity. Substitution of Met259 in 2-PS for Ile254 in CHS produces a modest alteration in cavity volume. To examine the functional importance of these amino acid differences, the initiation/elongation cavity of CHS was altered by mutagenesis to resemble that of 2-PS. The resulting mutant proteins were screened for activity using either p-coumaroyl-CoA or acetyl-CoA as starter molecules. Activities of 2-PS, CHS, and the CHS mutants were determined by monitoring product formation using a TLC-based radiometric assay. Assay conditions were 100 mM Hepes (pH 7.0), 30 μM starter-CoA (either p-coumaroyl-CoA or acetyl-CoA), and 60 μM [^14C]-malonyl-CoA (50,000 cpm) in 100 μl at 25° C. Reactions were quenched with 5% acetic acid, extracted with ethyl acetate, and applied to TLC plates and developed. Due to the spontaneous cyclization of chalcone into the flavanone naringenin, activities of CHS are referenced to naringenin formation.
The x-ray crystal structures of 2-PS and CHS imply that the size of the active site cavity limits polyketide length and modulates folding of the polyketide chain. […] Since the T197L, G256L, and S338I mutants altered product formation, a CHS triple mutant was generated. […] LC/MS/MS analysis was performed by the Mass Spectroscopy facility of the Scripps Research Institute. Scaled-up assays (2 ml reaction volume) with the CHS T197L/G256L/S338I mutant and 2-PS were performed. Extracts were analyzed on a Hewlett-Packard HP1100 MSD single quadrupole mass spectrometer coupled to a ZorbaxSB-C18 column (5 μm, 2.1 mm×150 mm). HPLC conditions were as follows: gradient system from 0 to 100% methanol in water (each containing 0.2% acetic acid) within 10 min; flow rate 0.25 ml min^−1. LC/MS/MS data from both reactions were identical: 6-methyl-4-hydroxy-2pyrone, Rt=5.068 min; [M-H]^−125 (41); [M-H—CO2]^−[…] (100). The numbers show m/z values with relative intensities in parenthesis. The observed fragmentation matches previously published data.

A further data set has as its system CHS. Particulars: covalently modifies Cys164; Lanz et al. 1991; cited from earlier work.
A short description of data set [2]: Functional assay of malonyl-CoA decarboxylation by the C164S mutant. It counts as biochemical. Particulars: determined crystallographically and confirmed by a functional assay. The source says: Asn336 appears to play a crucial role in the decarboxylation reaction. […] In the hexanoyl-CoA complex, the side chain amide of Asn336 provides a hydrogen bond to the carbonyl oxygen of the thioester. This interaction would stabilize the enolate anion resulting from decarboxylation of malonyl-CoA (see FIG. 6). At the same time, the lack of formal positive charge at Asn336 may preserve the partial carbanion character of this resonance-stabilized anion, and thus the nucleophilicity of the carbanion form.

[3] abbreviates: 30 μM starter-CoA, 60 μM [14C]-malonyl-CoA, pH 7.0, 25° C.

Turning to “2-PS: 2-Pyrone synthase from Gerbera hybrida, expressed in E. coli”, in data set [1], the polyketide product formed entry is “produces the triketide methylpyrone” and the starter molecule accepted result is listed as “accepts acetyl-CoA but does not use p-coumaroyl-CoA”. On to `C/C=C/C/C=C/CCC(=O)[C@H]1O[C@H]1C(N)=O` [Cerulenin], for which, in the data set on CHS, the “inhibition of CHS” value was “potent irreversible inhibitor”. Take “CHS I254M: CHS mutant I254M of SEQ ID NO:1”: in data set [1], the “specific activity compared with wild-type enzyme” value is recorded as “functionally comparable to wild-type enzyme with a modest reduction in specific activity” and the polyketide product formed result was “yields chalcone”. For the molecule G256L: CHS mutant G256L of SEQ ID NO:1, in data set [1] (setting [3]), the “preference for acetyl-CoA over coumaroyl-CoA as starter molecule” value is listed as 3 fold. Moreover, the polyketide product formed entry in data set [1] was “do not form chalcone”.

With S338I: CHS mutant S338I of SEQ ID NO:1, the “preference for p-coumaroyl-CoA versus acetyl-CoA as starter molecule” value in data set [1] (setting [3]) is recorded as 3 fold. In addition, the polyketide product formed result in data set [1] is given as “do not form chalcone; also recorded: form a distinct product”. Consider “T197L/G256L/S338I: CHS triple mutant with active site sterically analogous to 2-pyrone synthase”, for which, in data set [1], the polyketide product formed entry was “produces only methylpyrone” and the starter molecule accepted result was “only accepts acetyl-CoA (or malonyl-CoA)”. On to T197L: CHS mutant T197L of SEQ ID NO:1, for which the “preference for p-coumaroyl-CoA versus acetyl-CoA as starter molecule” value in data set [1] (setting [3]) is 10 fold. Besides, in data set [1], the polyketide product formed entry was “do not form chalcone; also recorded: form a distinct product”.

B1: C164S: CHS mutant C164S of SEQ ID NO:1 (protein, UniProt P30074 1-389, looked up, variant C164S)
Chalcone synthase 2: MVSVSEIRKAQRAEGPATILAIGTANPANCVEQSTYPDFYFKITNSEHKTELKEKFQRMCDKSMIKRRYMYLTEEILKENPNVCEYMAPSLDARQDMVVVEVPRLGKEAAVKAIKEWGQPKSKITHLIVCTTSGVDMPGADYQLTKLLGLRPYVKRYMMYQQGSFAGGTVLRLAKDLAENNKGARVLVVCSEVTAVTFRGPSDTHLDSLVGQALFGDGAAALIVGSDPVPEIEKPIFEMVWTAQTIAPDSEGAIDGHLREAGLTFHLLKDVPGIVSKNITKALVEAFEPLGISDYNSIFWIAHPGGPAILDQVEQKLALKPEKMNATREVLSEYGNMSSACVLFILDEMRKKSTQNGLKTTGEGLEWGVLFGFGPGLTIETVVLRSVAI
Regarding B1, the “decarboxylation of malonyl-CoA / residual catalytic activity” value in data set [2] was “retains limited catalytic activity; also recorded: produces acetyl-CoA”.
